Key:
[1] = cited from earlier work
Excerpt: Somatostatin analogs (SSAs) are the preferred type of medical therapy used to reduce GH secretion. Patients who have persistent disease following surgical resection are recommended treatment with the first-generation long acting SSAs, octreotide long-acting release (LAR) or lanreotide autogel. Lanreotide is a synthetic octapeptide analog of natural somatostatin with a longer half-life (t½) than the native molecule, and a selective somatostatin receptor subtype agonist with a high affinity for human somatostatin receptors 2 and 5 [5], which are commonly expressed at both the mRNA [6] ... || Steady-state PK was achieved after the administration of four lanreotide autogel doses. […] Similarly, Bronstein and colleagues reported a steady state Cmin (equivalent to Ctrough) of 3.76 ng/mL [19].

[2] = Serum lanreotide pharmacokinetics (non-compartmental); assay type: in vivo, human; conditions: lanreotide autogel; fourth titrated dose 120 mg normalized to 90 mg vs first dose of 90 mg; PK subgroup
Experimental: Lanreotide autogel – pre-dose serum samples were taken at weeks 1, 13, 17, and 29; sampling around 4 h after treatment at weeks 13 and 17 and at the end of study (Week 33)/early withdrawal visit. For a subset of patients in the PK subgroup, additional samples were taken during the study and during the PK extension phase: after the first administration of 90 mg at Week 1 (1, 4, 6, 8, 12, 24, and 72 h), Week 2 (168 h), Week 3 (336 h), Week 4 (504 h) and prior to the next administration at Week 5 (672 h); after the fourth (last) administration of the titrated dose at Week 29 (1, 4, 6, 8, 12, 24, and 72 h), Week 30 (168 h), Week 31 (336 h), Week 32 (504 h), and at Week 37 (1344 h) and Week 41 (2016 h).
Lanreotide 40 mg PR – pre-dose serum samples were taken at weeks 1, 2, 13, 16, and at the end-of-study/early withdrawal visit (all taken shortly before treatment) for all patients.
PK endpoints included trough lanreotide concentrations (Ctrough i.e. observed serum concentration at the end of the dosing interval) prior to the fourth, fifth and eighth administrations and at the end-of-study treatment visit with lanreotide autogel, and prior to the second, tenth and twelfth administrations and at the end-of-study visit with lanreotide 40 mg PR. Following a similar approach as reported by Bronstein and colleagues, a non-compartmental PK analysis was performed for the lanreotide autogel PK subgroup to provide individual PK parameters over a 4-week dosing interval after the first and last administration of study drug (i.e. steady state): maximum plasma concentration (Cmax), time to maximum plasma concentration (tmax), area under the concentration–time curve over a 4-week dosing interval (AUCtau), Ctrough and elimination t½ [19].
Additional parameters were estimated, comparing lanreotide PK after Week 1 and Week 29 after normalization to a dose of 90 mg: accumulation ratio for Ctrough (Rtrough) = Ctrough,Week 29/Ctrough,Week 1; accumulation ratio for Cmax (Rmax) = Cmax,Week 29/Cmax,Week 1; accumulation ratio for AUCtau (RAUC) = AUCtau, Week 29/AUCtau, Week 1.

[3] = tested on: human somatostatin receptor 5; set-up: method as in PMID 7988476; conditions: selective somatostatin receptor subtype agonist; cited from earlier work
[4] = tested on: human somatostatin receptor 2; set-up: method as in PMID 7988476; conditions: selective somatostatin receptor subtype agonist; cited from earlier work

CC(C)[C@@H]1NC(=O)[C@H](CCCCN)NC(=O)[C@@H](Cc2c[nH]c3ccccc23)NC(=O)[C@H](Cc2ccc(O)cc2)NC(=O)[C@@H](NC(=O)[C@H](N)Cc2ccc3ccccc3c2)CSSC[C@@H](C(=O)N[C@H](C(N)=O)[C@@H](C)O)NC1=O [lanreotide]
Half-life (t½) compared with the native molecule (natural somatostatin) [1]: longer | Mean RAUC (accumulation ratio for AUCtau, Week 29/Week 1) [2]: 2.33 | Mean Rmax (accumulation ratio for Cmax, Week 29/Week 1) [2]: 1.40 | Mean Rtrough (accumulation ratio for Ctrough, Week 29/Week 1) [2]: 2.62 | Affinity for human somatostatin receptor 5 [3]: high affinity | Affinity for human somatostatin receptor 2 [4]: high affinity
